{"source": "ChEMBL document CHEMBL1201862", "about": "“PubChem BioAssay data set” (2004)", "assay_in_all_cases": "inhibition of tumour cell growth, NCI panel, 48 h", "key": {"LOX IMVI": {"test_system": "LOX IMVI"}, "DLD-1": {"test_system": "DLD-1"}, "HT-29": {"test_system": "HT-29"}, "HCC 2998": {"test_system": "HCC 2998"}, "HOP-18": {"test_system": "HOP-18"}, "SF-295": {"test_system": "SF-295"}, "SN12C": {"test_system": "SN12C"}, "NCI-H460": {"test_system": "NCI-H460"}, "OVCAR-5": {"test_system": "OVCAR-5"}, "SK-MEL-5": {"test_system": "SK-MEL-5"}, "HOP-92": {"test_system": "HOP-92"}, "OVCAR-4": {"test_system": "OVCAR-4"}, "CAKI-1": {"test_system": "CAKI-1"}, "MOLT-4": {"test_system": "MOLT-4"}, "K562": {"test_system": "K562"}, "RXF 393": {"test_system": "RXF 393"}, "SF-539": {"test_system": "SF-539"}, "SNB-75": {"test_system": "SNB-75"}, "XF498": {"test_system": "XF498"}, "KM-20L2": {"test_system": "KM-20L2"}, "A549": {"test_system": "A549"}, "SNB-78": {"test_system": "SNB-78"}, "SNB-19": {"test_system": "SNB-19"}, "ACHN": {"test_system": "ACHN"}, "EKVX": {"test_system": "EKVX"}, "M19-MEL": {"test_system": "M19-MEL"}, "KM12": {"test_system": "KM12"}, "HCT-15": {"test_system": "HCT-15"}, "Malme-3M": {"test_system": "Malme-3M"}, "CCRF-CEM": {"test_system": "CCRF-CEM"}, "NCI-H522": {"test_system": "NCI-H522"}, "OVCAR-8": {"test_system": "OVCAR-8"}, "DMS-114": {"test_system": "DMS-114"}, "786-0": {"test_system": "786-0"}, "IGROV-1": {"test_system": "IGROV-1"}, "UO-31": {"test_system": "UO-31"}, "M14": {"test_system": "M14"}, "SK-MEL-28": {"test_system": "SK-MEL-28"}, "NCI-H226": {"test_system": "NCI-H226"}, "HCT-116": {"test_system": "HCT-116"}, "UACC-257": {"test_system": "UACC-257"}, "SK-OV-3": {"test_system": "SK-OV-3"}, "HL-60": {"test_system": "HL-60"}, "SK-MEL-2": {"test_system": "SK-MEL-2"}, "RXF 631": {"test_system": "RXF 631"}, "UACC-62": {"test_system": "UACC-62"}, "NCI-H23": {"test_system": "NCI-H23"}, "SF-268": {"test_system": "SF-268"}, "HOP-62": {"test_system": "HOP-62"}, "RPMI-8226": {"test_system": "RPMI-8226"}, "A498": {"test_system": "A498"}, "OVCAR-3": {"test_system": "OVCAR-3"}, "TK-10": {"test_system": "TK-10"}, "COLO 205": {"test_system": "COLO 205"}, "U-251": {"test_system": "U-251"}, "SW-620": {"test_system": "SW-620"}, "DMS-273": {"test_system": "DMS-273"}}, "note": "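Protocol summary: plate cells (96-well), add compound at 5 concentrations, incubate 48 h, interpolate endpoints linearly. Abbreviation: GI50, concentration required for 50% inhibition of growth.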 Active and inactive are the calls of the source. No stated cut-off is given here; in the data, active = GI50 up to about 1.1 µM and inactive = higher."}
{"smiles": "C/C=C/C=N/N(C(=O)c1cc([N+](=O)[O-])cc([N+](=O)[O-])c1)C1=NN=C(c2ccccc2)C(c2ccccc2)N1", "note": "(configuration not stated)", "values": [{"measurement": "GI50", "setting": "LOX IMVI", "value": "78.5 µM (inactive)"}, {"measurement": "GI50", "setting": "DLD-1", "value": "75.7 µM (inactive)"}, {"measurement": "GI50", "setting": "HT-29", "value": "35.6 µM (inactive)"}, {"measurement": "GI50", "setting": "HCC 2998", "value": "34 µM (inactive)"}, {"measurement": "GI50", "setting": "HOP-18", "value": "> 100 µM (inactive)"}, {"measurement": "GI50", "setting": "SF-295", "value": "94.6 µM (inactive)"}, {"measurement": "GI50", "setting": "SN12C", "value": "57.9 µM (inactive)"}, {"measurement": "GI50", "setting": "NCI-H460", "value": "91.2 µM (inactive)"}, {"measurement": "GI50", "setting": "OVCAR-5", "value": "> 100 µM (inactive)"}, {"measurement": "GI50", "setting": "SK-MEL-5", "value": "27.2 µM (inactive)"}, {"measurement": "GI50", "setting": "HOP-92", "value": "11.1 µM (inactive)"}, {"measurement": "GI50", "setting": "OVCAR-4", "value": "68.4 µM (inactive)"}, {"measurement": "GI50", "setting": "CAKI-1", "value": "> 100 µM (inactive)"}, {"measurement": "GI50", "setting": "MOLT-4", "value": "25.7 µM (inactive)"}, {"measurement": "GI50", "setting": "K562", "value": "52.8 µM (inactive)"}, {"measurement": "GI50", "setting": "RXF 393", "value": "> 100 µM (inactive)"}, {"measurement": "GI50", "setting": "SF-539", "value": "42.5 µM (inactive)"}, {"measurement": "GI50", "setting": "SNB-75", "value": "> 100 µM (inactive)"}, {"measurement": "GI50", "setting": "XF498", "value": "36 µM (inactive)"}, {"measurement": "GI50", "setting": "KM-20L2", "value": "32.1 µM (inactive)"}, {"measurement": "GI50", "setting": "A549", "value": "61.2 µM (inactive)"}, {"measurement": "GI50", "setting": "SNB-78", "value": "52.8 µM (inactive)"}, {"measurement": "GI50", "setting": "SNB-19", "value": "> 100 µM (inactive)"}, {"measurement": "GI50", "setting": "ACHN", "value": "97.5 µM (inactive)"}, {"measurement": "GI50", "setting": "EKVX", "value": "> 100 µM (inactive)"}, {"measurement": "GI50", "setting": "M19-MEL", "value": "21.6 µM (inactive)"}, {"measurement": "GI50", "setting": "KM12", "value": "46.2 µM (inactive)"}, {"measurement": "GI50", "setting": "HCT-15", "value": 41.4, "unit": "µM"}, {"measurement": "GI50", "setting": "Malme-3M", "value": "25.6 µM (inactive)"}, {"measurement": "GI50", "setting": "CCRF-CEM", "value": "36.7 µM (inactive)"}, {"measurement": "GI50", "setting": "NCI-H522", "value": "21.4 µM (inactive)"}, {"measurement": "GI50", "setting": "OVCAR-8", "value": "89.9 µM (inactive)"}, {"measurement": "GI50", "setting": "DMS-114", "value": "21 µM (inactive)"}, {"measurement": "GI50", "setting": "786-0", "value": "80.4 µM (inactive)"}, {"measurement": "GI50", "setting": "IGROV-1", "value": "> 100 µM (inactive)"}, {"measurement": "GI50", "setting": "UO-31", "value": "43.9 µM (inactive)"}, {"measurement": "GI50", "setting": "M14", "value": "33.3 µM (inactive)"}, {"measurement": "GI50", "setting": "SK-MEL-28", "value": "97.7 µM (inactive)"}, {"measurement": "GI50", "setting": "NCI-H226", "value": "> 100 µM (inactive)"}, {"measurement": "GI50", "setting": "HCT-116", "value": "30.2 µM (inactive)"}, {"measurement": "GI50", "setting": "UACC-257", "value": "26.5 µM (inactive)"}, {"measurement": "GI50", "setting": "SK-OV-3", "value": "> 100 µM (inactive)"}, {"measurement": "GI50", "setting": "HL-60", "value": "18.6 µM (inactive)"}, {"measurement": "GI50", "setting": "SK-MEL-2", "value": "74 µM (inactive)"}, {"measurement": "GI50", "setting": "RXF 631", "value": "> 100 µM (inactive)"}, {"measurement": "GI50", "setting": "UACC-62", "value": "51.8 µM (inactive)"}, {"measurement": "GI50", "setting": "NCI-H23", "value": "26.9 µM (inactive)"}, {"measurement": "GI50", "setting": "SF-268", "value": "47.2 µM (inactive)"}, {"measurement": "GI50", "setting": "HOP-62", "value": "> 100 µM (inactive)"}, {"measurement": "GI50", "setting": "RPMI-8226", "value": "24.4 µM (inactive)"}, {"measurement": "GI50", "setting": "A498", "value": "> 100 µM (inactive)"}, {"measurement": "GI50", "setting": "OVCAR-3", "value": "23.4 µM (inactive)"}, {"measurement": "GI50", "setting": "TK-10", "value": "> 100 µM (inactive)"}, {"measurement": "GI50", "setting": "COLO 205", "value": "30.5 µM (inactive)"}, {"measurement": "GI50", "setting": "U-251", "value": "> 100 µM (inactive)"}, {"measurement": "GI50", "setting": "SW-620", "value": "55 µM (inactive)"}, {"measurement": "GI50", "setting": "DMS-273", "value": "46 µM (inactive)"}]}
